Test results as given in patent publication US20230372301A1, “TREATMENTS WITH NIROGACESTAT” (SpringWorks Therapeutics, Inc., priority 2022, published 2023).

Tests used:
[1] = tested on: progressing desmoid tumors; conditions: Phase 2, participants with progressing desmoid tumors; cited from earlier work
[2] = tested on: progressing desmoid tumors/aggressive fibromatosis (DT/AF); assay type: in vivo
From the text: A Phase 3, double-blind, placebo-controlled study is being conducted to determine the efficacy and safety of nirogacestat dihydrobromide in participants with progressing desmoid tumors. A Phase 1 solid tumor study provided preliminary efficacy (Messersmith, W., et al., “A Phase I, dose-finding study in patients with advanced solid malignancies of the oral y-secretase inhibitor PF-03084014,” Clin. Cancer Res., 21:60-7 (2015)), including long-term durable responses and safety of nirogacestat in desmoid participants (Villalobos, V. M., et al., “Long-Term Follow-Up of Desmoid Fibromatosis Treated with PF-03084014, an Oral Gamma Secretase Inhibitor, Ann. Surg. Oncol., 25:768-75 (2018)). These encouraging results lead to a Phase 2 study in participants with progressing desmoid tumors (Kummar, S., et al., “Clinical Activity of the γ-Secretase Inhibitor PF-03084014 in Adults with Desmoid Tumors (Aggressive Fibromatosis), J. Clin. Oncol., 35:1561-69 (2017)). […] Importantly, participants in the responder group had failed previous systemic therapies (imatinib or sorafenib) indicating a need for alterative therapeutic options for this patient population.
Overall Design: The Phase 3 study will be a multi-center, randomized, double-blind, placebo-controlled, event-driven to compare the efficacy, safety, and tolerability of nirogacestat and placebo in adult participants with progressing DT/AF. This study will consist of 2 phases, a double-blind and an optional open-label extension (OLE) phase.
Following disease progression (confirmed by central review using RECIST v1.1), or completion of the double-blind phase (once the required number of events have been observed and the primary PFS analysis has been completed), participants' treatment assignment will be unblinded, and if eligible, participants will have the option to enroll in the optional OLE phase.
Type of Participant and Disease Characteristics: • 1. Participant has DT/AF that has progressed by ≥20% as measured by RECIST v1.1 within the 12-month period prior to first dose of study treatment. • 2. Participant has: • a. Newly diagnosed, measurable progressing DT/AF that is not amenable to surgical resection or radiation therapy; • OR • b. Recurrent, progressing DT/AF following CR to initial therapy; • OR • c. Preexisting DT/AF and has previously received therapy and the residual tumor has progressed. • 3. Participant agrees to provide archival or new tumor tissue for confirmation of disease. • 4. If participant was previously treated with an investigational therapy for treatment of DT/AF, participant must have completed prior therapy at least 28 days prior to signing informed consent. All toxicities from prior therapy must resolve to Grade 1 or baseline. • 5. Participants who are receiving nonsteroidal anti-inflammatory drugs (NSAIDs) as treatment for conditions other than DT/AF must be receiving them prior to the observed progression (inclusion criteria 1) for: • a. Chronic scheduled daily use (defined as stable for 28 days prior to signing informed consent); or • b. Occasional use (defined as ≤3 days per week) for the treatment of pain or as an anti-inflammatory in licensed conditions such as headache, arthritis, etc. • c. Participant has an Eastern Cooperative Oncology Group (ECOG) performance status ≤2 at screening. • 6. Participant has adequate organ and bone marrow function as defined by the following Screening laboratory values: • a. Absolute neutrophil count ≥1500/μL; • b. Platelets ≥100×10^3/μL; • c. Hemoglobin ≥9 g/dL; • d. Total bilirubin ≤1.5×upper limit of normal (ULN) (isolated bilirubin >1.5×ULN is acceptable if bilirubin is fractionated and direct bilirubin <35%); • e. Aspartate aminotransferase (AST) (serum glutamic oxaloacetic transaminase)/alanine aminotransferase (ALT) (serum glutamic pyruvate transaminase)≤2×ULN; and • f. […] Participant can swallow tablets and has no gastrointestinal conditions affecting absorption. […]

[3] = 150 mg twice daily, positive change indicates improvement
[4] = change from Baseline in EORTC, P: <0.001

For `CCC[C@H](N[C@H]1CCc2cc(F)cc(F)c2C1)C(=O)Nc1cn(C(C)(C)CNCC(C)(C)C)cn1` (single isomer, unassigned) [nirogacestat], the “participants progressing while on therapy” value [1] is listed as “no participants progressing while on therapy”, the response rate [1] is listed as 29% and the “tumor shrinkage as measured by magnetic resonance imaging (MRI)” value [1] is listed as “significant tumor shrinkage”. For the same compound, the “mean change from Baseline in EORTC, Global health status/Quality of life (GHS/QoL)” value [2, 3] was 4.493, the “mean change from Baseline in EORTC, QLQ30 Role Functioning” value [2, 3] was 11.133 and the “mean change from Baseline in EORTC, QLQC30 Physical Functioning” value [2, 3] was 8.523. The “LS mean difference (between nirogacestat and placebo), Global health status/Quality of life (GHS/QoL)” value ([2]; change from Baseline in EORTC, P: 0.007) was 10.515, the “LS mean difference (between nirogacestat and placebo), QLQ30 Role Functioning” value [2, 4] was 16.714 and the “LS mean difference (between nirogacestat and placebo), QLQC30 Physical Functioning” value [2, 4] was 13.154. For the same compound, the “most frequent adverse reactions requiring a dose reduction or interruption” value ([2]; in vivo) was “diarrhea, rash maculo-papular, hypophosphatemia, stomatitis, folliculitis, and fatigue”, the “progression-free survival (PFS), hazard ratio (HR)” value ([2]; nirogacestat 150 mg twice daily over placebo, <0.001) was 0.29 and the “objective response rate (ORR)” value ([2]; nirogacestat 150 mg twice daily versus placebo, p<0.001) was “statistically significant improvements”. The “four different quality of life (QoL) assessments and patient-reported outcomes (PROs)” value ([2]; nirogacestat 150 mg twice daily versus placebo, p<0.001 for each) was “statistically significant improvements”.
